Data from patent US20250136655A1, “INJECTION PEN FOR SUBCUTANEOUS ADMINISTRATION OF A PEPTIDE” (Zealand Pharma A/S, priority 2017, published 2025).
Values joined by “and” are separate entries in the source; they are usually repeats but may differ in a detail not shown here. Equal values may be shown once. Read-outs that look alike come from different tables or passages of the source. Ends that are not written are not given here.

Tests used:
[1] = cited from earlier work
[2] = Phase 2 clinical trial PK profile of ZP1848 and metabolites in SBS patients; format: in vivo; conditions: human, plasma
Method: The study was designed as a randomized, cross-over and double-blinded with three different doses of ZP1848 (10 mg, 1 mg, 0.1 mg) in 16 SBS patients.
The 18 SBS patients (16 patients completed the study) were randomized evenly and in a double-blinded fashion to each of the six cross-over dose level combinations: 10 mg/1 mg, 10 mg/0.1 mg, 1 mg/10 mg, 1 mg/0.1 mg, 0.1 mg/10 mg, 0.1 mg/1 mg of ZP1848. The patients were injected once daily (QD) subcutaneously with the above doses of ZP1848.
Blood samples for PK analysis were collected on several study visits throughout the study period: the study comprised a 1st baseline balance study (4 days), a 1st treatment period (21 days) including a 1st treatment balance study (last 4 days of 1st treatment period), followed by a wash-out period (at least 4 weeks); and a 2nd baseline balance study (4 days), a 2nd treatment period (21 days) including a 2nd treatment balance study (last 4 days of 2nd treatment period) and a follow-up period (at least 4 weeks).
PK sampling was performed at visit 11 (1st treatment, balance study) and visit 17 (second day of 2nd baseline study-after a wash out period), and again at visit 25 (2nd treatment balance study) and at visit 29 (last day of follow-up period).
At day visit 11 and visit 25 a full PK profile in steady state was investigated. PK samples were taken prior to injection of ZP1848, and at the following time points (+/−10 minutes) after trial product administration: 1 h, 2 h, 4 h, 6 h, 8 h, 10 h, 12 h and 24 h. Each PK sample contained 2 mL of blood, resulting in a total of […] blood drawn for PK purposes. The plasma sample was immediately stored at −80° C. after sampling.
Plasma samples were analyzed after immunoaffinity extraction followed by liquid chromatography mass spectrometry (LC-MS/MS). […] Plasma terminal elimination half-life (T½) was determined as In (2)/ke where ke is the magnitude of the slope of the log linear regression of the log concentration versus time profile during the terminal phase.

[3] = Phase 1 PK trial of glepaglutide in healthy subjects, half-life of metabolite ZP2469; format: in vivo, human; conditions: per subject; for half-life: human, plasma
Text: A Phase 1, Open-Label, Partially Randomized, 3-Part, Parallel Group Trial to Evaluate the Pharmacokinetic Profile of glepaglutide (ZP1848) After a Single Intravenous Injection and After Multiple Subcutaneous Injections in Healthy Human Subjects A Phase 1 clinical trial to characterize the pharmacokinetic (PK) profiles of glepaglutide (ZP1848) and its primary active metabolites following once-weekly and once daily subcutaneous (SC) injections and after a single intravenous (IV) infusion in healthy subjects was conducted. This included evaluating the pharmacodynamic effects on plasma citrulline levels following SC dosing in healthy subjects. The trial confirmed the feasibility of dosage regimes in which GLP-2 analogues are administered to patients in weekly dosage regimes and compare weekly dosage regimes with daily dosing.
The trial design was a single-center, open-label, partially randomized, 3-part, parallel group trial to characterize the PK profile of glepaglutide administered by SC injection once daily for 7 days (Part 1), SC injection once weekly for 6 weeks (Part 2), and as a single IV infusion (Part 3) in healthy subjects.
Group A: 1 mg glepaglutide once daily, given as single SC injections on Days 1 to 7.
Group B: 5 mg glepaglutide once daily, given as single SC injections on Days 1 to 7.
Group C: 5 mg glepaglutide once weekly, given as single SC injections on Days 1, 8, 15, 22, 29, and 36.
Group D: 10 mg glepaglutide once weekly, given as single SC injections on Days 1, 8, 15, 22, 29, and 36.
Blood samples were collected for the analysis of plasma concentrations of glepaglutide and its primary active metabolites, ZP2469 (ZP18481-34) and ZP2711 (ZP18481-35); samples were assayed using validated analytical methods. The following PK parameter estimates were calculated using standard non-compartmental methods: terminal elimination half-life (t1/2), total body clearance of drug after IV administration (CL; IV dose, parent drug only), apparent total clearance (CL/F; SC doses, parent drug only), volume of distribution at steady state (Vss; IV dose, parent drug only), apparent volume of distribution at steady state (Vss/F; SC doses, parent drug only), volume of distribution (Vz; IV dose, parent drug only), apparent volume of distribution (Vz/F; SC doses, parent drug only), maximum observed plasma concentration (Cmax), area under the plasma concentration-time curve (AUC) over a dosing interval (AUCT), AUC from time zero to infinity (AUCinf), AUC from time zero to the time of the last measurable concentration (AUClast), and time of the maximum observed plasma concentration (tmax). Metabolite exposure (based on Cmax, AUCT, and AUCinf) were determined for each group as a ratio of the 2 primary active metabolites, ZP2469 (ZP18481-34) and ZP2711 (ZP18481-35), relative to the glepaglutide parent drug.
The PK parameters estimates for glepaglutide, ZP2469 (ZP18481-34), and ZP2711 (ZP 18481-35) were listed and summarized using standard descriptive statistics. The primary PK parameters are t1/2 for glepaglutide, ZP2469 (ZP18481-34), and ZP2711 (ZP18481-35); and CL (IV dose), CL/F (SC doses), Vss(IV dose), Vss/F (SC dose), Vz(IV dose), and Vz/F (SC doses) for glepaglutide. The half-life is calculated as LN(2)/ke where ÷ke is estimate from the slope of the terminal part of the LN(concentration) versus time curve, with repeats regressions of LN(concentration) values using the last three points with non-zero concentrations, then the last four points, last five points, etc. Points with a concentration value of zero are not included. Points prior to Cmax are not used. […] 2) ke must be calculated from at least three data points. 3) The estimated slope must be negative, so that its negative ke is positive. The results of the calculations carried out with preliminary data are shown in Table 4, while the results of the calculations with the complete final data set are shown in Table 5. […]

Wistar rats = experiment: Intestinotrophic effects following 26-week chronic exposure in rats; format: in vivo; conditions: in words
Method: Wistar rats were dosed subcutaneously (SC) with vehicle, 1, 3 and 10 mg/kg ZP1848 on a daily basis for 26 weeks. Further sub-groups of control and high-dose animals were allowed a 6-week recovery period following completion of the dosing period. […] The length and the weight of the small and large intestines were measured at necropsy as indicators of intestinotrophic effects and the intestinal tract was evaluated histologically.

[4] = previous experiments; cited from earlier work
human GLP-2 receptor = target: T1, human GLP-2 receptor (human, UniProt O95838 1-553); experiment: cell-based or functional assay
T1 sequence (looked up): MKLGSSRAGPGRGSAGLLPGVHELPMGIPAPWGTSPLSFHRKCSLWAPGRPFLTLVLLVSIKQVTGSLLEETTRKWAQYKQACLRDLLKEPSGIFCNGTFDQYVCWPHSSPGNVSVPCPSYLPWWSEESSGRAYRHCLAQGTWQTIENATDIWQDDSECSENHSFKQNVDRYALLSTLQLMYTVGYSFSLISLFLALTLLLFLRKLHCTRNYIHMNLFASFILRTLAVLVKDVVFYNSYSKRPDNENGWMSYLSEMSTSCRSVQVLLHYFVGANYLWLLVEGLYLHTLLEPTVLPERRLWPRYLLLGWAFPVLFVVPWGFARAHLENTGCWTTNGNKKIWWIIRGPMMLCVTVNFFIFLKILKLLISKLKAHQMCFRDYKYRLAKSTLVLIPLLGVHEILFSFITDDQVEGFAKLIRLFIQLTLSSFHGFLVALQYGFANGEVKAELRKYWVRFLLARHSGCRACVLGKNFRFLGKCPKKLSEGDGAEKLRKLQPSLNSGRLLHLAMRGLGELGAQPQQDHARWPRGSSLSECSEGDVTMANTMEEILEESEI

[5] = subcutaneous, Phase 2 study, SBS patients, read-out: terminal plasma half-life

CC[C@H](C)[C@H](NC(=O)[C@H](Cc1ccccc1)NC(=O)[C@H](CC(=O)O)NC(=O)[C@H](CCCNC(=N)N)NC(=O)[C@H](C)NC(=O)[C@H](C)NC(=O)[C@H](CC(C)C)NC(=O)[C@H](CC(N)=O)NC(=O)[C@H](CC(=O)O)NC(=O)[C@H](CC(C)C)NC(=O)[C@@H](NC(=O)[C@@H](NC(=O)[C@H](CC(N)=O)NC(=O)[C@H](CCSC)NC(=O)[C@H](CCC(=O)O)NC(=O)[C@H](CC(=O)O)NC(=O)[C@H](CO)NC(=O)[C@H](Cc1ccccc1)NC(=O)[C@H](CO)NC(=O)CNC(=O)[C@H](CC(=O)O)NC(=O)CNC(=O)[C@@H](N)Cc1c[nH]cn1)[C@@H](C)O)[C@@H](C)CC)C(=O)N[C@@H](CC(N)=O)C(=O)N[C@@H](Cc1c[nH]c2ccccc12)C(=O)N[C@@H](CC(C)C)C(=O)N[C@H](C(=O)N[C@@H](CCC(N)=O)C(=O)N[C@H](C(=O)N[C@@H](CCCCN)C(=O)N[C@H](C(=O)N[C@H](C(=O)N[C@@H](CC(=O)O)C(=O)O)[C@@H](C)O)[C@@H](C)CC)[C@@H](C)O)[C@@H](C)CC [Teduglutide]
half-life ([1]; in vivo): about two

GLP-2 [3-33]: truncated GLP-2 [3-33] (DGSFSDEMNTILDNLAARDFINWLIQTKITD; Glucagon-like peptide 2; UniProt P01275 148-178, looked up, fragment)
half-life ([1]; in humans): ~0.45 h

H-HGEGTFSSELATILDALAARDFIAWLIATKITDK-OH [ZP2469]
half-life [2, 5]: 120 to 408 h
Half-life of ZP2469 in the interval from 72 to 168 hours post dose ([3]; final results, Group A, 1 mg once daily, after 7 doses): 75 h
Half-life of ZP2469 in the interval from 72 to 168 hours post dose ([3]; final results, Group C, 5 mg once weekly, after 1 dose): 59 h and 75 h
Half-life of ZP2469 in the interval from 72 to 168 hours post dose ([3]; final results, Group C, 5 mg once weekly, after 6 doses): 57 h
Half-life of ZP2469 in the interval from 72 to 168 hours post dose ([3]; final results, Group D, 10 mg once weekly, after 1 dose): 54 h and 46 h and 35 h and 60 h and 26 h and 53 h and 43 h and 33 h and 45 h and 38 h
Half-life of ZP2469 in the interval from 72 to 168 hours post dose ([3]; final results, Group D, 10 mg once weekly, after 6 doses): 59 h and 53 h and 42 h and 48 h
half-life ([3]; sc, 10 mg, preliminary results, Group D, 10 mg glepaglutide SC once weekly, after 1 dose, read-out: Half-life ZP2469 (converted)): 56 h
half-life ([3]; subcutaneous, 1 mg, final results, Group A, 1 mg once daily, after 7 doses, read-out: Half-life of ZP2469 in the interval from 72 to 168 hours post dose (converted)): 94 h
Half-life ZP2469 ([3]; preliminary results, Group A, 1 mg glepaglutide SC once daily, after 7 doses): 20 h
Half-life ZP2469 ([3]; preliminary results, Group C, 5 mg glepaglutide SC once weekly, after 1 dose): 17 h
Half-life ZP2469 ([3]; preliminary results, Group D, 10 mg glepaglutide SC once weekly, after 1 dose): 38 h and 34 h

H-HGEGTFSSELATILDALAARDFIAWLIATKITDKK-OH [ZP2711]
half-life ([2]; sc, plasma terminal elimination half-life, per subject, after SC once-daily ZP1848, read-out: Half-life (converted)): 336 h

H-HGEGTFSSELATILDALAARDFIAWLIATKITDKKKKKK-NH2 [ZP1848] [listing 1 of 2 here]
mucosal hyperplasia of the duodenum, jejunum and ileum (Wistar rats; 1, 3 and 10 mg/kg SC daily for 26 weeks): dose-related increase
length and weight of the large intestine (Wistar rats; SC daily for 26 weeks): slightly increased

H-HGEGTFSSELATILDALAARDFIAWLIATKITDKKKKKK-NH2 [ZP1848] [listing 2 of 2 here]
half-life [2, 5]: 120 to 408 h
half-life [4]: about 17 hours

Hy-His-Ala-Asp-Gly-Ser-Phe-Ser-Asp-Glu-Met-Asn-Thr-Ile-Leu-Asp-Asn-Leu-Ala-Ala-Arg-Asp-Phe-Ile-Asn-Trp-Leu-Ile-Gln-Thr-Lys-Ile-Thr-Asp-OH [GLP-2 [1-33]]
half-life ([1]; in humans): around 7 minutes
half-life ([1]; in humans, listed as native GLP-2): seven

Teduglutide (peptide)
EC50 Avg (nM), cAMP AlphaScreen in HEK293 cells expressing hGLP-2R (human GLP-2 receptor): 0.03 nM

HGEGTFSSELATILDALAARDFIAWLIATKITDKKK-OH [ZP2949]
EC50_Avg (nM), cAMP AlphaScreen in HEK293 cells expressing hGLP-2R (human GLP-2 receptor): 0.11 nM

HGEGTFSSELATILDALAARDFIAWLIATKITDKK-OH [ZP2711]
EC50_Avg (nM), cAMP AlphaScreen in HEK293 cells expressing hGLP-2R (human GLP-2 receptor): 0.072 nM

HGEGTFSSELATILDALAARDFIAWLIATKITDKKKKKK-NH2 [ZP1848]
EC50_Avg (nM), cAMP AlphaScreen in HEK293 cells expressing hGLP-2R (human GLP-2 receptor): 0.3 nM

HGEGSFSSELSTILDALAARDFIAWLIATKITDKKKKKK-NH2 [ZP1846]
EC50_Avg (nM), cAMP AlphaScreen in HEK293 cells expressing hGLP-2R (human GLP-2 receptor): 0.26 nM

HGEGTFSSELATILDALAARDFIAWLIATKITDK-OH [ZP2469]
EC50_Avg (nM), cAMP AlphaScreen in HEK293 cells expressing hGLP-2R (human GLP-2 receptor): 0.052 nM
